Seven compounds from patent EP4631938A1, “NITROGEN-CONTAINING HETEROCYCLE WITH SEROTONIN RECEPTOR-BINDING ACTIVITY AND CARBOCYCLIC DERIVATIVE” (Shionogi & Co., Ltd, priority 2022, dated 2024) can be followed below.

Like-named read-outs stand apart in the source and are kept apart here.

Test [1] has as its target T1, human recombinant 5-HT2A receptor (Homo sapiens, UniProt P28223).
T1 construct: expressed in transfected cells; host or cells: Jump-In HEK cells (membrane preparation)
Briefly: Test Example 1-2: 5-HT2A receptor binding inhibition test ([3H]-Ketanserin; non-specific ligand Ketanserin). In short, it runs like this:
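Ki values were derived from dose-response inhibition of [3H]-ketanserin binding; nonspecific binding was set with 500 µmol/L ketanserin, and Kd was set for each membrane lot from Scatchard saturation plots. Incubation lasted 1.5 h at room temperature (25 °C). Bound radioligand was harvested on Tris-HCl (pH 7.4)-presoaked filters and counted.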

Test [2] concerns the target T2, human recombinant 5-HT2C receptor (Homo sapiens, UniProt P28335).
T2 construct: expressed in transfected cells; host or cells: Jump-In HEK cells (membrane preparation)
T2 sequence (P28335 33-458): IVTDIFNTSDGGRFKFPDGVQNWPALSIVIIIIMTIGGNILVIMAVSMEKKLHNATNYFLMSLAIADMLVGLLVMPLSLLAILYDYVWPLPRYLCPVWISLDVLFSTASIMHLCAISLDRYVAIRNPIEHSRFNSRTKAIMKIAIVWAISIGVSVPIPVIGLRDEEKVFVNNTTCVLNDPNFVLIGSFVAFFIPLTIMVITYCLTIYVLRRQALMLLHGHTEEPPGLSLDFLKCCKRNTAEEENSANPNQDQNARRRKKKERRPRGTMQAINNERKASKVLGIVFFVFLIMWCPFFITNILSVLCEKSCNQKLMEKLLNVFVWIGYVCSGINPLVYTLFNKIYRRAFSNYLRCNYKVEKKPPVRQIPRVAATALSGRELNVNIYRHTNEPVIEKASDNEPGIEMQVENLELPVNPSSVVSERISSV
Briefly: Test Example 2: 5-HT2C receptor binding inhibition test ([3H]-Mesulergine; non-specific ligand Serotonin HCl). In a few lines: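 Ki values come from dose-response curves of [3H]-mesulergine displacement from human 5-HT2C membranes after 2 h at 37°C, scored by scintillation counting of filter-bound radioactivity. Serotonin HCl (500 µmol/L) set non-specific binding; Kd per membrane lot was taken from Scatchard plots.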

[3] abbreviates: [3H]-Mesulergine, non-specific binding with 500 µmol/L Serotonin HCl, 37°C, 2 hours.
The mark [4] stands for this setting: [3H]-Ketanserin, non-specific binding with 500 µmol/L Ketanserin, room temperature (25°C), 1.5 hours, read-out: h 5-HT2A Ki.
[5] abbreviates: human serotonin 5-HT2C receptor binding activity.

T1 sequence (P28223 whole entry): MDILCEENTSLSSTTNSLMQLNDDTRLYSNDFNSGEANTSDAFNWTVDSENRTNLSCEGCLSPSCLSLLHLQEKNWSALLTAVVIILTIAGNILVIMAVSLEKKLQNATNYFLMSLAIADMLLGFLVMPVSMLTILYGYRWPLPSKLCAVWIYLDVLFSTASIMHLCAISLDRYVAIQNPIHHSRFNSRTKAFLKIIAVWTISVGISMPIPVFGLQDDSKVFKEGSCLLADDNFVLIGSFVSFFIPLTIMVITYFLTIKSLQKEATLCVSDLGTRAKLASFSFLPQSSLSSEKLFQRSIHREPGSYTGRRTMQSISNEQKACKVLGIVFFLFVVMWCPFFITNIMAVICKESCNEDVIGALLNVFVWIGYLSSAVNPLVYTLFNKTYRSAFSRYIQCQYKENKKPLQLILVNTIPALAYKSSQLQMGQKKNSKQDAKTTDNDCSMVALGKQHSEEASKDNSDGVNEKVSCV

`Cn1ncc(Br)c1-c1cc(Nc2ncc(C(F)(F)F)cc2F)ccc1OCCO` [Compound I-006]: the inhibition constant Ki – broadly, the equilibrium dissociation constant of an inhibitor or competing ligand from its target – turned out to be 0.253 nM in test [1] and 0.223 nM in test [2] (setting [3]).

As for `COCc1nc(C)c(-c2nc(Nc3ccc(C(F)(F)F)c(C)n3)c(F)cc2OCCO)c(C)n1` [Compound I-247], the Ki in test [1] (setting [4]) worked out at 1.74 nM; in test [2] (setting [5]), 1.62 nM.

Turning to `Cn1ncc(F)c1-c1cc(Nc2ncc(C(F)(F)F)cc2F)cnc1OCCO` [Compound I-127], the Ki in test [1] (setting [4]) stood at 0.271 nM.

Turning to `COCc1nc(C)c(-c2cc(Nc3ncc(OC(F)(F)F)cc3Cl)ncc2OCCO)c(C)n1` [Compound I-200], the Ki stood at 1.49 nM in test [1] (setting [4]) and 1.9 nM in test [2] (setting [5]).

With `Cc1nc(CO[C@@H]2CCOC2)nc(C)c1-c1cc(Nc2ncc(C(F)(F)F)cc2Cl)ncc1OCCO` [Compound I-378], the Ki in test [1] (setting [4]) was determined as 2.43 nM; in test [2] (setting [5]), 1.51 nM.

In the case of `Cc1nc(COC2COC2)nc(C)c1-c1cc(Nc2ncc(C(F)(F)F)cc2Cl)ncc1OCCO` [Compound I-376], the values for the Ki in test [1] (setting [4]) and in test [2] (setting [5]) were 2.24 nM and 2.74 nM, respectively.

Regarding `Cc1cnn(C)c1-c1cc(Nc2ncc(C(F)(F)F)cc2F)ccc1OCCO` [Compound I-008], the Ki worked out at 0.338 nM in test [1] (setting [4]) and 1.05 nM in test [2] (setting [3]).
